# Article PMC9671377, “Label-free affinity screening, design and synthesis of inhibitors targeting the Mycobacterium tuberculosis L-alanine dehydrogenase” (PLOS ONE, 2022)
# Values joined by “and” are separate entries in the source; they are usually repeats but may differ in a detail not shown here. Equal entries are not always repeated. Where two headings read alike, the source gives them in different places.
# Tests used:
# [1] = biological target: T1, Mtb L-alanine dehydrogenase (AlaDH, Rv2780) (Mycobacterium tuberculosis, UniProt P9WQB1); details: cited from earlier work
# [2] = biological target: T1, Mtb L-alanine dehydrogenase (AlaDH, Rv2780); format: binding; details: for Integrated band volume / Ratio against N6-methyl ado / Eluted protein amount relative to N6-methyl ado / Eluted AlaDH compared to N6-methyl ado: SDS gel densitometry; for Integrated band volume / Ratio against N6-methyl ado: Fig 3a
# [3] = biological target: Mtb L-alanine dehydrogenase (AlaDH) (Mycobacterium tuberculosis, UniProt P9WQB1); format: biochemical
# [4] = biological target: Mycobacterium tuberculosis L-alanine dehydrogenase (Mycobacterium tuberculosis, UniProt P9WQB1); test: biochemical; format: biochemical; details: for Ki: competitive inhibition mode vs NAD, value (S.D.) in table
# [5] = tested on: Mtb aldehyde dehydrogenase (Rv0223c, AldDH); format: biochemical, Mycobacterium tuberculosis; details: 1 mM inhibitor, 1 mM NAD, 10 mM propionaldehyde
# human malate DH 2 = biological target: T2, human malate DH 2 (Homo sapiens, UniProt P40926); test: Activity assay against human malate DH 2; format: biochemical
# T2 sequence (P40926 25-338): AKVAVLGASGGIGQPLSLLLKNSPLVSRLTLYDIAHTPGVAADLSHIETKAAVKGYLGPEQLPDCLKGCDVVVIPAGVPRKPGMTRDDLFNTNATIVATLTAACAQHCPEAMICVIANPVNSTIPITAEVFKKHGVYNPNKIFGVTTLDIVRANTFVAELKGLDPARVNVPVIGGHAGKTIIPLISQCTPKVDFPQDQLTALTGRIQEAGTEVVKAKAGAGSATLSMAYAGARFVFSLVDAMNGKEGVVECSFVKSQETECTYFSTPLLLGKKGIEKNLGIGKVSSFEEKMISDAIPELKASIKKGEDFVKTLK
# [6] = tested on: Mtb in murine primary bone marrow-derived macrophages (BMDMs); format: cell-based, Mycobacterium tuberculosis H37Rv; details: 500 μM, 3 days
# [7] = tested on: Mycobacterium tuberculosis H37Rv cells; test: Minimum inhibitory concentration assay (microfluidic agarose channel chip); format: cell-based
# [8] = compound at 1 mM, SDS-PAGE of eluate
# T1 sequence (P9WQB1 whole entry, looked up): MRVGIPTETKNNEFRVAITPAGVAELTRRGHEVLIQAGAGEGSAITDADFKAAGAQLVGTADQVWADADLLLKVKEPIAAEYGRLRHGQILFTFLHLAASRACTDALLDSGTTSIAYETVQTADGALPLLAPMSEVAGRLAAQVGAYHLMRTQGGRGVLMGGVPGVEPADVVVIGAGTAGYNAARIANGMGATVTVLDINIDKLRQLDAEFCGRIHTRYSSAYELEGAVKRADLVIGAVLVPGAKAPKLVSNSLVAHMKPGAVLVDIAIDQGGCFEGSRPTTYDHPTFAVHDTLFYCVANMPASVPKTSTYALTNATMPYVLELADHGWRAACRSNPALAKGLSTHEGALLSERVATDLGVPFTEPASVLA
# Sequence of Mtb L-alanine dehydrogenase (AlaDH) (P9WQB1 whole entry, looked up): as above
# Sequence of Mycobacterium tuberculosis L-alanine dehydrogenase (P9WQB1 whole entry, looked up): as above
smiles,measurement,setting,value
"Nc1ncnc2c1ncn2[C@@H]1O[C@H](COP(=O)(O)OP(=O)(O)OP(=O)(O)O)[C@@H](O)[C@H]1O [ATP, reference compound]",Binding in DLAC assay (previous data),[1],bound strongly
same,Elution of AlaDH from F3GA dye resin (displacement of the dye) in DLAC,[2]; [8],eluted the target AlaDH enzyme
"Cc1nc(N)c2ncn([C@@H]3O[C@H](CO)[C@@H](O)[C@H]3O)c2n1 [D28, C2-methyl adenosine]",Elution of AlaDH from F3GA dye resin (displacement of the dye) in DLAC,[2],did not show displacement
same,Initial velocity (vi) of the AlaDH reaction with compound,[3],1.769 x10^-3 [NADH]OD340/min
same,Reduction of initial velocity (vi) of the AlaDH reaction,[3],4%
"CNc1ncnc2c1ncn2[C@@H]1O[C@H](CO)[C@@H](O)[C@H]1O [D30, N6-methyl adenosine]",Ki,[4],860 µM and 861 µM
same,Inhibition of AldDH activity,[5],none
same,Inhibition of human malate DH 2 activity,human malate DH 2,no noticeable inhibition
same,Integrated band volume,[2],"41,418"
same,Ratio against N6-methyl ado,[2],1
same,Elution of AlaDH from F3GA dye resin (displacement of the dye) in DLAC,[2]; [8],displaced the F3GA dye from AlaDH
same,Reduction of initial velocity (vi) of the AlaDH reaction,"[3]; 1 mM inhibitor, 1 mM NAD, 17 mM L-alanine",33%
same,Initial velocity (vi) of the AlaDH reaction with compound,"[3]; no inhibition vi 1.842x10^-3, 1 mM inhibitor",1.231x10^-3 [NADH]OD340/min
same,Intracellular growth of Mtb in BMDMs,[6],significantly decreased
same,MIC,[7],~10 µg/mL
CC(=O)Nc1ncnc2c1ncn2[C@@H]1O[C@H](CO)[C@@H](O)[C@H]1O [N6-acetyl ado],Inhibitory effect on AlaDH activity,[4],did not reveal any inhibitory effect
same,Eluted protein amount relative to N6-methyl ado,[2],12%
same,Integrated band volume,[2],"5,015"
same,Ratio against N6-methyl ado,[2],0.12
CCNc1ncnc2c1ncn2[C@@H]1O[C@H](CO)[C@@H](O)[C@H]1O [N6-ethyl adenosine],Ki,[4],520 µM and 521 µM
same,Eluted AlaDH compared to N6-methyl ado,[2],2.12 fold
same,Integrated band volume,[2],"87,674"
same,Ratio against N6-methyl ado,[2],2.12
same,melting point,,197.1 to 198.4 °C
CC(C)CNc1ncnc2c1ncn2[C@@H]1O[C@H](CO)[C@@H](O)[C@H]1O [N6-isobutyl adenosine],Ki,[4],80 µM and 79 µM
same,Inhibition of AldDH activity,[5],no inhibition
same,Inhibition of human malate DH 2 activity,human malate DH 2,no noticeable inhibition
same,Integrated band volume,[2],"143,252"
same,Ratio against N6-methyl ado,[2],3.45
same,Eluted AlaDH compared to N6-methyl ado,[2]; listed as N6-isobutyl ado,3.45 fold and ~ 3.5 fold
same,vi of wild-type AlaDH after adding compound,"[3]; […], without compound vi 1.922 x10^-3",0.734 x10^-3 [NADH]OD340/min
CC(C)C(=O)Nc1ncnc2c1ncn2[C@@H]1O[C@H](CO)[C@@H](O)[C@H]1O [N6-isobutyoyl adenosine],Ki,[4],3710 µM
same,Eluted protein amount relative to N6-methyl ado,[2],70%
same,Integrated band volume,[2],"29,087"
same,Ratio against N6-methyl ado,[2],0.70
CCCNc1ncnc2c1ncn2[C@@H]1O[C@H](CO)[C@@H](O)[C@H]1O [N6-propyl adenosine],Ki,[4],110 µM and 113 µM
same,Eluted AlaDH compared to N6-methyl ado,[2],3.05 fold
same,Integrated band volume,[2],"126,378"
same,Ratio against N6-methyl ado,[2],3.05
same,melting point,,162 to 165.4 °C
NC(=O)C1=CN([C@@H]2O[C@H](COP(=O)(O)OP(=O)(O)OC[C@H]3O[C@@H](n4cnc5c(N)ncnc54)[C@H](O)[C@@H]3O)[C@@H](O)[C@H]2O)C=CC1 [NADH],Binding in DLAC assay (previous data),[1],bound strongly
